{"source": "paper PMC8524670", "about": "(Pharmacology Research & Perspectives, 2021)", "key": {"CYP2C8 [1]": {"test_system": "CYP2C8", "test": "CYP induction in human hepatocytes", "type": "in vitro ADME"}, "OAT3 [2]": {"biological_target": "T1, OAT3 (Homo sapiens, UniProt Q8TCC7)", "T1 sequence (Q8TCC7 1-542)": "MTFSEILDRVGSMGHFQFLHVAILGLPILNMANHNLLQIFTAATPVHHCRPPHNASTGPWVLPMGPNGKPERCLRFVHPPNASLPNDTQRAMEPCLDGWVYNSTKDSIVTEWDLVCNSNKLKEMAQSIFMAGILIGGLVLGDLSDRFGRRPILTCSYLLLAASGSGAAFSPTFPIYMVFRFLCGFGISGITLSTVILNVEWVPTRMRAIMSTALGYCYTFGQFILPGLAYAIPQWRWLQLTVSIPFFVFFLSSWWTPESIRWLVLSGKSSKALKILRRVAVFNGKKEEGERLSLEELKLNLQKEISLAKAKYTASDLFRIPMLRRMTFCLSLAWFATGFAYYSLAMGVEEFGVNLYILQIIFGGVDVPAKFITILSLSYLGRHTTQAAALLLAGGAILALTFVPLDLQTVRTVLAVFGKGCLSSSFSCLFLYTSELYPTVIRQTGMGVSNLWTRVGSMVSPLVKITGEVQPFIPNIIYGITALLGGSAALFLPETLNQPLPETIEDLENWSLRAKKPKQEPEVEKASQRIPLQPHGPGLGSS", "test": "SLC inhibition assay in HEK293 cells", "type": "in vitro ADME"}, "OAT3 [3]": {"biological_target": "T1, OAT3", "test": "SLC transportation assay in HEK293 cells", "type": "in vitro ADME", "conditions": "uptake ratios <2 at 0.1, 0.3, 5 µM"}, "CYP2C9": {"test_system": "CYP2C9", "test": "CYP induction in human hepatocytes", "type": "in vitro ADME"}, "CYP2B6 [4]": {"biological_target": "T2, CYP2B6 (Homo sapiens, UniProt P20813)", "T2 sequence (P20813 1-491)": "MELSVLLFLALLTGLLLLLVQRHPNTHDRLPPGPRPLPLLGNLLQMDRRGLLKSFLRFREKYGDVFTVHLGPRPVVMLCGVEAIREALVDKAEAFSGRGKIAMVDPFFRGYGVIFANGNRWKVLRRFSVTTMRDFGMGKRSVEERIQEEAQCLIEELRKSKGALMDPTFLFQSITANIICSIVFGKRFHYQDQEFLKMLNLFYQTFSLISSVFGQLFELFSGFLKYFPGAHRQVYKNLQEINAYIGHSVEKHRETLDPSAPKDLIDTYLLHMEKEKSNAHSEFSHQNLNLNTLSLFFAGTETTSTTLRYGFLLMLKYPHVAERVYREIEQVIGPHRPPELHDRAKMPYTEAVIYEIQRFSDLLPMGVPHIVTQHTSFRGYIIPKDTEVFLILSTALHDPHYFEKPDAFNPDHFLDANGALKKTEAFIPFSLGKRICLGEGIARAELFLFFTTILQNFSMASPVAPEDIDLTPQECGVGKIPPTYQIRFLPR", "test": "Time-dependent CYP inhibition in HLMs", "conditions": "10 µM zanubrutinib, 30 min pre-incubation with HLMs and NADPH"}, "CYP2B6 [5]": {"biological_target": "T2, CYP2B6", "test": "CYP reversible inhibition in HLMs", "type": "in vitro ADME"}, "CYP2B6 [6]": {"test_system": "CYP2B6", "test": "CYP induction in human hepatocytes", "type": "in vitro ADME"}, "CYP3A4": {"test_system": "CYP3A4", "conditions": "coadministration of zanubrutinib; cited from earlier work"}, "CYP2C8 [7]": {"biological_target": "T3, CYP2C8 (Homo sapiens, UniProt P10632)", "T3 sequence (P10632 1-490)": "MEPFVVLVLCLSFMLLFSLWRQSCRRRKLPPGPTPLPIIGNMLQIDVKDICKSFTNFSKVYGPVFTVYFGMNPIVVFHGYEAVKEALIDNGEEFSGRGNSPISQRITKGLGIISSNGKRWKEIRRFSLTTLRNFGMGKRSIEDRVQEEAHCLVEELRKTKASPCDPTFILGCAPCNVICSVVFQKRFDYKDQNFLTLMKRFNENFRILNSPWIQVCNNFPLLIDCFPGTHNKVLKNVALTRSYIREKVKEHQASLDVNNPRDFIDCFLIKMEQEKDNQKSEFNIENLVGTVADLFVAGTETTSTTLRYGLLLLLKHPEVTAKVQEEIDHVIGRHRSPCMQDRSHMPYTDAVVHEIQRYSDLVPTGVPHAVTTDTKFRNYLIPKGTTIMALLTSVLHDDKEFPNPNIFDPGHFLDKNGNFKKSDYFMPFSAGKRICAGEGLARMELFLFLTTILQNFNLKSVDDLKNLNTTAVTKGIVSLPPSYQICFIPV", "test": "CYP reversible inhibition in HLMs", "conditions": "amodiaquine"}, "OAT1": {"biological_target": "T4, OAT1 (Homo sapiens, UniProt Q4U2R8)", "T4 sequence (Q4U2R8 1-563)": "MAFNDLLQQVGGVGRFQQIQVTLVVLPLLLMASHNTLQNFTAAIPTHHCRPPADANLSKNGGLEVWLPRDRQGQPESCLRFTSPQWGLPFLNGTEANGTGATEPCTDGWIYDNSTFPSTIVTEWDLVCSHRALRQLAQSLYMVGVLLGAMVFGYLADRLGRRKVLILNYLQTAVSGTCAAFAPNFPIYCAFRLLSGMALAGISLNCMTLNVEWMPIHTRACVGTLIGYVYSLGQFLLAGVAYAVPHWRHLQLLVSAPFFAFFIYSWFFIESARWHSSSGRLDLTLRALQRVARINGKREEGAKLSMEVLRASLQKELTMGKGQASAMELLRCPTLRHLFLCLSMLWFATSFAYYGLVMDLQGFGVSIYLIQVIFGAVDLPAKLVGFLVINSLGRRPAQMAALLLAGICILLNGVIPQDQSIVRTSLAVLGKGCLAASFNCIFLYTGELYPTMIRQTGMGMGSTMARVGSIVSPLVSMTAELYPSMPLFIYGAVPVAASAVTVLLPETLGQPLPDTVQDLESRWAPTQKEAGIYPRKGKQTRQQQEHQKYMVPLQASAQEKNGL", "test": "SLC transportation assay in HEK293 cells", "conditions": "uptake ratios <2 at 0.1, 0.3, 5 µM"}, "[8]": {"conditions": "DDI basic model value for induction"}, "[9]": {"conditions": "human, cryopreserved human hepatocytes"}, "[10]": {"conditions": "static model term, induction in liver"}, "[11]": {"conditions": "human, HEK293 cells overexpressing OAT3 (and MOCK cells), probe estrone sulfate"}}, "data": [{"smiles": "C=CC(=O)N1CCC([C@@H]2CCNc3c(C(N)=O)c(-c4ccc(Oc5ccccc5)cc4)nn32)CC1", "note": "[zanubrutinib]", "values": [{"measurement": "R 3", "setting": "CYP2C8 [1]; [8]", "value": "[…]"}, {"measurement": "EC50 at 3 days", "setting": "CYP2C8 [1]; [9]", "value": "[…]"}, {"measurement": "Ch", "setting": "CYP2C8 [1]; [10]", "value": "[…]"}, {"measurement": "Inhibition of uptake activity", "setting": "OAT3 [2]; 0.05–5 µM", "value": "not inhibited"}, {"measurement": "activity at 0.05 µM", "setting": "OAT3 [2]; [11]", "value": "90 ± 4.2", "unit": "%"}, {"measurement": "activity at 0.2 µM", "setting": "OAT3 [2]; [11]", "value": "97.8 ± 7.7", "unit": "%"}, {"measurement": "activity at 1 µM", "setting": "OAT3 [2]; [11]", "value": "113 ± 27", "unit": "%"}, {"measurement": "activity at 5 µM", "setting": "OAT3 [2]; [11]", "value": "199 ± 34", "unit": "%"}, {"measurement": "Substrate status", "setting": "OAT3 [3]", "value": "unlikely to be a substrate"}, {"measurement": "R 3", "setting": "CYP2C9; [8]", "value": "[…]"}, {"measurement": "EC50 at 3 days", "setting": "CYP2C9; [9]", "value": "[…]"}, {"measurement": "Ch", "setting": "CYP2C9; [10]", "value": "[…]"}, {"measurement": "Percent loss of enzymatic activity", "setting": "CYP2B6 [4]", "value": 15.5, "unit": "%"}, {"measurement": "IC50", "setting": "CYP2B6 [5]", "value": 121, "unit": "µM"}, {"measurement": "Ki", "setting": "CYP2B6 [5]; Ki, bupropion, Ki = IC50/2", "value": 60.5, "unit": "µM"}, {"measurement": "Ki", "setting": "CYP2B6 [5]; Kiu, bupropion, unbound Ki", "value": 47.8, "unit": "µM"}, {"measurement": "R1", "setting": "CYP2B6 [5]; bupropion, DDI basic model, hepatic", "value": 1.00}, {"measurement": "Ah", "setting": "CYP2B6 [5]; bupropion, static model term, liver inhibition", "value": 1.00}, {"measurement": "R 3", "setting": "CYP2B6 [6]; [8]", "value": 0.55}, {"measurement": "EC50 at 2 days", "setting": "CYP2B6 [6]; [9]", "value": 0.73, "unit": "µM"}, {"measurement": "Ch", "setting": "CYP2B6 [6]; [10]", "value": 1.23}, {"measurement": "Reduction of AUC of CYP3A probe midazolam", "setting": "CYP3A4", "value": 47.5, "unit": "%"}, {"measurement": "R1", "setting": "CYP2C8 [7]; DDI basic model, hepatic", "value": 1.05}, {"measurement": "Ah", "setting": "CYP2C8 [7]; static model term, liver inhibition", "value": 0.95}, {"measurement": "Substrate status", "setting": "OAT1", "value": "unlikely to be a substrate"}]}]}
